Test results as given in ChEMBL document CHEMBL5291721, “A preclinical secondary pharmacology resource illuminates target-adverse drug reaction associations of marketed drugs” (Nat Commun, 2023).

Columns and labels:
[1] = target: Sodium-dependent noradrenaline transporter (Homo sapiens, UniProt P23975)
Melanocortin receptor 3 = Melanocortin receptor 3 (Homo sapiens, UniProt P41968)
[2] = target: T1, Type-1 angiotensin II receptor (Homo sapiens, UniProt P30556)
T1 sequence (P30556 whole entry): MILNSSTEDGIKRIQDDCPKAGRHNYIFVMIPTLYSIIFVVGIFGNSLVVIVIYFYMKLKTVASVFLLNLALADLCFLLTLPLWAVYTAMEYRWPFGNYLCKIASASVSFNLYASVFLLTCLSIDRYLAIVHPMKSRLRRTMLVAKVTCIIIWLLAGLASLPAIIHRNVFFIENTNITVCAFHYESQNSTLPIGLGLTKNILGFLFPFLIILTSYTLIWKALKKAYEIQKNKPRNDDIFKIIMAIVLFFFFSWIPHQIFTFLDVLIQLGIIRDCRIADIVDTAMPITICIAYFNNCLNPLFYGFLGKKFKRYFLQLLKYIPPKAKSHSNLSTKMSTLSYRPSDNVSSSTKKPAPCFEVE

Progesterone receptor = target: T2, Progesterone receptor (Homo sapiens, UniProt P06401); assay type: functional
T2 sequence (P06401 whole entry): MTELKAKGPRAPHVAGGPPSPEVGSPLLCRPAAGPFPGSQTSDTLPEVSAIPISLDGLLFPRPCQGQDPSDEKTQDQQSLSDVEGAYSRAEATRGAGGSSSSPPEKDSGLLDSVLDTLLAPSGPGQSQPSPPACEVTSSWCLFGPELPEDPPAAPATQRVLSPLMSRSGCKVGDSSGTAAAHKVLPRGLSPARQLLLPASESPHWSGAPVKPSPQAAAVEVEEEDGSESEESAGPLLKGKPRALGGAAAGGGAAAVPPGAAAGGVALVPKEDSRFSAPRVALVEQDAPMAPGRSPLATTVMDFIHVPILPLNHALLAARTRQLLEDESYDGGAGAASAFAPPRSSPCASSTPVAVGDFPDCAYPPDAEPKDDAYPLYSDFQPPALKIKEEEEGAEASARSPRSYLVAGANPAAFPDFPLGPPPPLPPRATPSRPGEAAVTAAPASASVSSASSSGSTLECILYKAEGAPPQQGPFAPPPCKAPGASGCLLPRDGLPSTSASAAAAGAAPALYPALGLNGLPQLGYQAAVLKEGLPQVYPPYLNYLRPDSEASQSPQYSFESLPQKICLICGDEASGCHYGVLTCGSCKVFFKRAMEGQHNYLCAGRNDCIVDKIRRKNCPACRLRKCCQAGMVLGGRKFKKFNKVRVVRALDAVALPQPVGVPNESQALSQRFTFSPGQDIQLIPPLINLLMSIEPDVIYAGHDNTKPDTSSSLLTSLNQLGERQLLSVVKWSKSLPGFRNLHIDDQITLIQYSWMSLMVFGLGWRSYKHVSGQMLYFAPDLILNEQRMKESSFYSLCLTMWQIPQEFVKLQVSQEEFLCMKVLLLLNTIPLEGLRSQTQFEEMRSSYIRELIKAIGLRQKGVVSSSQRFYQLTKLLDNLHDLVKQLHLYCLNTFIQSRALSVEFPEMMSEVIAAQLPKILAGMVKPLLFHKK

[3] = target: 5-hydroxytryptamine receptor 2A (Homo sapiens, UniProt P28223); assay type: functional, cell-based
[4] = target: Beta-1 adrenergic receptor (Homo sapiens, UniProt P08588); assay type: functional
[5] = target: T3, Alpha-1A adrenergic receptor (Homo sapiens, UniProt P35348); assay type: functional, cell-based
T3 sequence (P35348 whole entry): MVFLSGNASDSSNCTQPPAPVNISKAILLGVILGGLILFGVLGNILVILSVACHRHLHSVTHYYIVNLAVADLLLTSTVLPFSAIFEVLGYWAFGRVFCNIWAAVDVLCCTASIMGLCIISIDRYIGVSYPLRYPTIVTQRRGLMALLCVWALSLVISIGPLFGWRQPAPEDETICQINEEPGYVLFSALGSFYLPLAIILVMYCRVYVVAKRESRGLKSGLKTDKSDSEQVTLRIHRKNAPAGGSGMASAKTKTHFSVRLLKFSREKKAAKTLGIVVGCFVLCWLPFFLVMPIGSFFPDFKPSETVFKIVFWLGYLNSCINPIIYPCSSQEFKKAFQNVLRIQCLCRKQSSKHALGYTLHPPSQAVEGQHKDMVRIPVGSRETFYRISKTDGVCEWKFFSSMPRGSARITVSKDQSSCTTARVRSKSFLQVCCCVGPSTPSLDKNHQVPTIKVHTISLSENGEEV

[6] = target: cGMP-inhibited 3',5'-cyclic phosphodiesterase 3A (Homo sapiens, UniProt Q14432); assay type: functional
[7] = target: Glutamate receptor ionotropic, NMDA 1 (Rattus norvegicus, UniProt P35439)
[8] = target: T4, 5-hydroxytryptamine receptor 1A (Homo sapiens, UniProt P08908); assay type: functional, cell-based
T4 sequence (P08908 whole entry): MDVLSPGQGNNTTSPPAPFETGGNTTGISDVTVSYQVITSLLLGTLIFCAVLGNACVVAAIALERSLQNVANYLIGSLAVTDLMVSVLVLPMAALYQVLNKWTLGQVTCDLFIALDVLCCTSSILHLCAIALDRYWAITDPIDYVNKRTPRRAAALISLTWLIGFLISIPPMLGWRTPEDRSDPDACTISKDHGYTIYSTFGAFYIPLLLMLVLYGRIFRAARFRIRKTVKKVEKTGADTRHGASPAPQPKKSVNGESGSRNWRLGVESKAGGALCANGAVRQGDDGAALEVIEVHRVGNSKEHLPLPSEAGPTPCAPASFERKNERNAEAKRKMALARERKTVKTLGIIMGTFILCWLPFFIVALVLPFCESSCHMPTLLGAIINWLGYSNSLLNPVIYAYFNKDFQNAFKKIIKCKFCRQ

Adenosine receptor A3 = target: T5, Adenosine receptor A3 (Homo sapiens, UniProt P0DMS8)
T5 sequence (P0DMS8 whole entry): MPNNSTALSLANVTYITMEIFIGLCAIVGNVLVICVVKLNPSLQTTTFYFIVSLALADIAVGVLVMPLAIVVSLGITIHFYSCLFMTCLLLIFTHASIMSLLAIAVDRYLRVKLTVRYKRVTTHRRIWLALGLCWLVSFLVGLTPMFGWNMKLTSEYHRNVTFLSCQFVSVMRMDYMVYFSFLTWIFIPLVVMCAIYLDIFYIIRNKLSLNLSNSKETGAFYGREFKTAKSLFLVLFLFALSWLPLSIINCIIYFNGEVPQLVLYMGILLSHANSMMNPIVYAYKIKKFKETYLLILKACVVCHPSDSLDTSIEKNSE
Note: assay procedure not described here.

Beta-1 adrenergic receptor, sequence (P08588 whole entry): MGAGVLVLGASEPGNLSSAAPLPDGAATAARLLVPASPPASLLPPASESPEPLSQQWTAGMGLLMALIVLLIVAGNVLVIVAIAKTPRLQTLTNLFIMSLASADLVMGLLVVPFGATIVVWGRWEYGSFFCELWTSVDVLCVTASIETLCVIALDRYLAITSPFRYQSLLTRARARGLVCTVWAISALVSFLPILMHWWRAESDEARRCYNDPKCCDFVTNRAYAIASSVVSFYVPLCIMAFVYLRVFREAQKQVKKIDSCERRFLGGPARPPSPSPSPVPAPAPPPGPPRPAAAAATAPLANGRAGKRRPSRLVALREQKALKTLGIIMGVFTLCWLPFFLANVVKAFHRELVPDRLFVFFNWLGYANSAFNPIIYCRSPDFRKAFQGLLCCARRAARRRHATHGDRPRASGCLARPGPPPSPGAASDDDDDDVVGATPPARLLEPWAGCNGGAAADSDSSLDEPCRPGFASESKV
cGMP-inhibited 3',5'-cyclic phosphodiesterase 3A, sequence (Q14432 whole entry): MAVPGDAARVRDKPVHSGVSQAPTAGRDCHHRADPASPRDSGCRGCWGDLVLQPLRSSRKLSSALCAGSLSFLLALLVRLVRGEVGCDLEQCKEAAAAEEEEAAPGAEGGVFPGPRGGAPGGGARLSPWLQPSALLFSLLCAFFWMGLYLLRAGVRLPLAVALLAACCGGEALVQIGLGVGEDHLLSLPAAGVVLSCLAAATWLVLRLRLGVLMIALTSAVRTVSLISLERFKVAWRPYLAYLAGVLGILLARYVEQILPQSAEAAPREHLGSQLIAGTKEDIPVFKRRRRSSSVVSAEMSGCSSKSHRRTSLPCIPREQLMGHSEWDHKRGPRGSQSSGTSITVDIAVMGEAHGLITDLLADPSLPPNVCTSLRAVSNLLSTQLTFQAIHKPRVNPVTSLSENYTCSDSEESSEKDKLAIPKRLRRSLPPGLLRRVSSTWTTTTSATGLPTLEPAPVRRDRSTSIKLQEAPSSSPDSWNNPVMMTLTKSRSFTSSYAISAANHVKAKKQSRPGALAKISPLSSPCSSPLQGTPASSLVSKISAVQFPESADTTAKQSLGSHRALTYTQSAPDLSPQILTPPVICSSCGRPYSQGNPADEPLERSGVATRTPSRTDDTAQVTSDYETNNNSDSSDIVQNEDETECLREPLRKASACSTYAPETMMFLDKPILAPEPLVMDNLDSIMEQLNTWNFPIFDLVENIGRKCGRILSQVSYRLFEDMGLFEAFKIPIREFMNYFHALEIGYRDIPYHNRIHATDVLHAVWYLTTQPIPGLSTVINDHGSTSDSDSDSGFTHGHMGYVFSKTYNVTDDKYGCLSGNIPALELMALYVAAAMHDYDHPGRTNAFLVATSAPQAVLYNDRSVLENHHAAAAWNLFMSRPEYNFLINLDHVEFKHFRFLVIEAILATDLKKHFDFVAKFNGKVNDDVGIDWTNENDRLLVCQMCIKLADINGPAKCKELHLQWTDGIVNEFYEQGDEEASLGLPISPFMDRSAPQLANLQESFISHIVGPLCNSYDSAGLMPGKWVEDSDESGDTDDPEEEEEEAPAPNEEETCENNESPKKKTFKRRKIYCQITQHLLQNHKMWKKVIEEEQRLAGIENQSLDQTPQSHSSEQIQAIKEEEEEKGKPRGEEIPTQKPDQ
5-hydroxytryptamine receptor 2A, sequence (P28223 whole entry): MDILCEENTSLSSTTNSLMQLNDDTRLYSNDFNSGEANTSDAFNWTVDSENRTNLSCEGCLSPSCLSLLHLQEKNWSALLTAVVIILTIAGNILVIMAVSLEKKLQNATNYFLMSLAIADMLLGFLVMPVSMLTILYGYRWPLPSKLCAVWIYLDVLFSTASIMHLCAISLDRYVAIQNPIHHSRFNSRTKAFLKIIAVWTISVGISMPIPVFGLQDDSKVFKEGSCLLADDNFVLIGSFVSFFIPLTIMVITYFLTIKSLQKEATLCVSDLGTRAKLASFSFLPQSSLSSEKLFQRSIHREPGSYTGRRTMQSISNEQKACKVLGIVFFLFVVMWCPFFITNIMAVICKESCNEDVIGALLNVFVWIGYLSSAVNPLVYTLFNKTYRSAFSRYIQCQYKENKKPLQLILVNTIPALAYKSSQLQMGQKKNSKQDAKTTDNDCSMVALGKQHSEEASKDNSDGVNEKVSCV
Sodium-dependent noradrenaline transporter, sequence (P23975 whole entry): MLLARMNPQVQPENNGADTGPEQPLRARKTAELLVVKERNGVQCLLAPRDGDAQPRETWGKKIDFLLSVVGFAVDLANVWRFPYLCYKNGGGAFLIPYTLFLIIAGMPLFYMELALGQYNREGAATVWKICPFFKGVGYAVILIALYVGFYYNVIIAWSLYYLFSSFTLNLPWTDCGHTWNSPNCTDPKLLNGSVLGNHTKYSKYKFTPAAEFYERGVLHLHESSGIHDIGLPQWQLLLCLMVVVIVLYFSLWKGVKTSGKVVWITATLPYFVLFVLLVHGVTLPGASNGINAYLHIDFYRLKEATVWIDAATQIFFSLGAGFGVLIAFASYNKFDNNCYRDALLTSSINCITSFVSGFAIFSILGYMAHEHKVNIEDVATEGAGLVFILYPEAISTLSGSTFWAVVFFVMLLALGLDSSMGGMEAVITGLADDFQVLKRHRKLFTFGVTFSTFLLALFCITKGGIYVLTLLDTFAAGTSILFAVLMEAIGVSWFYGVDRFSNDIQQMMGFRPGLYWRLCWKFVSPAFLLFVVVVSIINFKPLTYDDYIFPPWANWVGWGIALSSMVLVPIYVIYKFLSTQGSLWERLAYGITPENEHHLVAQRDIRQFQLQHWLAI
Melanocortin receptor 3, sequence (P41968 whole entry): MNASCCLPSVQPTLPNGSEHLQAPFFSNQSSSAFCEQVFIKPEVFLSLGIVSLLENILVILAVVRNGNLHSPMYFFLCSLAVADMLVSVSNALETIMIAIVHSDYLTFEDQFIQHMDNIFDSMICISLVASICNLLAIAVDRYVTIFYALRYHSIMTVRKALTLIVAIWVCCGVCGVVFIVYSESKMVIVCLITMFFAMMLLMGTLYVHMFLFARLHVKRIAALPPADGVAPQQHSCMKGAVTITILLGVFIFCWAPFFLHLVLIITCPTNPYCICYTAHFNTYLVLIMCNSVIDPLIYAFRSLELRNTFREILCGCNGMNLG

| Compound | AC50 [1] | AC50 (Melanocortin receptor 3) | AC50 [2] | AC50 (Progesterone receptor) | AC50 [3] | AC50 [4] | AC50 [5] | AC50 [6] | AC50 [7] | AC50 [8] | AC50 (Adenosine receptor A3) |
| --- | --- | --- | --- | --- | --- | --- | --- | --- | --- | --- | --- |
| CCCCC1(CC)C(=O)NC(=O)NC1=O [BUTETHAL] | > 30 µM | > 30 µM | > 30 µM | > 30 µM | > 30 µM | > 30 µM | > 30 µM | > 30 µM | > 30 µM | > 30 µM | > 30 µM |
| CCOC(=O)NNc1ccc(N(CC)CC(C)O)nn1 (stereo not given) [CADRALAZINE] | > 30 µM | > 30 µM | > 30 µM | > 30 µM | > 30 µM | > 30 µM | > 30 µM | > 30 µM | > 30 µM | > 30 µM | > 30 µM |
| CO[C@@]1(NC(=O)Cc2cccs2)C(=O)N2C(C(=O)O)=C(COC(N)=O)CS[C@@H]21 [CEFOXITIN] | > 30 µM | > 30 µM | > 30 µM | > 30 µM | > 30 µM | > 30 µM | > 30 µM | > 30 µM | > 30 µM | > 30 µM | > 30 µM |
| CCN(CC)CCOC(=O)c1ccc(N)cc1Cl [CHLOROPROCAINE] | > 30 µM | > 30 µM | > 30 µM | > 30 µM | > 30 µM | > 30 µM | > 30 µM | > 30 µM | > 30 µM | > 30 µM | > 30 µM |
| COCCOC(=O)C1=C(C)NC(C)=C(C(=O)OC/C=C/c2ccccc2)C1c1cccc([N+](=O)[O-])c1 (stereo not given) [CILNIDIPINE] | > 30 µM | > 30 µM | > 30 µM | > 30 µM | > 30 µM | > 30 µM | > 30 µM | > 30 µM | > 30 µM | > 30 µM | 4.8 µM |
| CCC(C)(Oc1ccc(C2(c3ccc(OC(C)(CC)C(=O)O)cc3)CCCCC2)cc1)C(=O)O (stereo not given) [CLINOFIBRATE] | > 30 µM | > 30 µM | > 30 µM | > 30 µM | > 30 µM | > 30 µM | > 30 µM | > 30 µM | > 30 µM | > 30 µM | 20 µM |
| CCCCC[C@H](O)/C=C/[C@H]1[C@H](O)CC(=O)[C@@H]1C/C=C\CCCC(=O)O [DINOPROSTONE] | > 30 µM | > 30 µM | > 30 µM | > 30 µM | > 30 µM | > 30 µM | > 30 µM | > 30 µM | > 30 µM | > 30 µM | > 30 µM |
| CC(C)c1cc2c(cc1S(=O)(=O)O)[C@@]1(C)CCC[C@@](C)(C(=O)O)[C@@H]1CC2 [ECABET] | > 30 µM | > 30 µM | > 30 µM | > 30 µM | > 30 µM | > 30 µM | > 30 µM | > 30 µM | > 30 µM | > 30 µM | > 30 µM |
| CCCN(CC)C(CC)C(=O)Nc1c(C)cccc1C (stereo not given) [ETIDOCAINE] | > 30 µM | > 30 µM | > 30 µM | > 30 µM | > 30 µM | > 30 µM | > 30 µM | > 30 µM | > 30 µM | > 30 µM | > 30 µM |
| Nc1nc(F)nc2c1ncn2[C@@H]1O[C@H](COP(=O)(O)O)[C@@H](O)[C@@H]1O [FLUDARABINE PHOSPHATE] | > 30 µM | > 30 µM | > 30 µM | > 30 µM | > 30 µM | > 30 µM | > 30 µM | > 30 µM | > 30 µM | > 30 µM | > 30 µM |
| C#C[C@]1(O)CC[C@H]2[C@@H]3CCC4=CC(=O)CCC4=C3C=C[C@@]21CC [GESTRINONE] | > 30 µM | > 30 µM | > 30 µM | 0.1 µM | > 30 µM | > 30 µM | > 30 µM | 2.9 µM | > 30 µM | > 30 µM | 22 µM |
| CCCCCCOC(=O)CCC(=O)CN [HEXAMINOLEVULINATE] | > 30 µM | > 30 µM | > 30 µM | > 30 µM | > 30 µM | > 30 µM | > 30 µM | > 30 µM | > 30 µM | > 30 µM | > 30 µM |
| Cc1ccc(NC(=O)C2(c3ccc4c(c3)OC(F)(F)O4)CC2)nc1-c1cccc(C(=O)O)c1 [LUMACAFTOR] | > 30 µM | > 30 µM | > 30 µM | > 30 µM | > 30 µM | > 30 µM | > 30 µM | > 30 µM | > 30 µM | > 30 µM | 15 µM |
| CC(C)OC(=O)C(C(=O)OC(C)C)=C1SC=CS1 [MALOTILATE] | > 30 µM | > 30 µM | > 30 µM | > 30 µM | > 30 µM | > 30 µM | > 30 µM | > 30 µM | > 30 µM | > 30 µM | > 30 µM |
| CC(=O)Nc1c(I)c(C(=O)N[C@H]2C(O)O[C@H](CO)[C@@H](O)[C@@H]2O)c(I)c(N(C)C(C)=O)c1I (stereo not given in full) [METRIZAMIDE] | > 10 µM | > 10 µM | > 10 µM | > 10 µM | > 10 µM | > 10 µM | > 30 µM | > 30 µM | > 10 µM | > 10 µM | > 10 µM |
